Results reported in patent US12097181B2, “Swine maternal neonatal pheromone” (Texas Tech University System, priority 2019, dated 2024).
“Also recorded” adds a separate entry of the source.

Tested on: piglets
Test: Preference test: piglet preference for feeders sprayed with maternal semiochemicals
Format: in vivo, Swine (Sus scrofa)
Settings: for overall preference index (PI) / percentage of time piglets spent interacting with the feeder: feeder sprayed with 5 mL testing solution (4.5 mg skatole and/or 9.0 mg myristic acid) vs mineral oil control feeder, litters 7±2 d of age, two 5-h test days; for piglet preference or aversion for sprayed feeder compared to control: feeder sprayed with testing solution vs mineral oil control
Method: Piglets used in this study were from a terminal cross between PIC Camborough genetic line sows and a terminal sire. Litters were housed in conventional slatted floor farrowing crates (1.52 m×2.13 m). All piglets were ear notched, teeth clipped, and injected with iron at 3 days of age. During this day, all males within a litter were also castrated by farm personnel. Prior to the study, piglets had no creep feeder. The preference test was performed in their home farrowing crate. Preference tests were conducted to determine piglet preference for skatole and myristic acid. First, nine litters (105 piglets) were used to evaluate piglet preference toward a solution containing both, skatole and myristic acid (N=9). Once piglet preference for a solution containing both molecules was determined, 8 litters (79 piglets) were used to evaluate piglet preference for skatole (N=8) and another 8 litters (80 piglets) to evaluate piglet preference for myristic acid (N=8) individually. Each litter was tested only once to ensure that piglets were tested at the same age and that they were not previously exposed to a feeder or a semiochemical.
At 7±2 days of age, two three-hole galvanized steel baby pig feeders were placed at each front corner of the farrowing crate for five hours for two consecutive days (FIG. 6). […] The sow was present during each five hours trial. Each feeder contained 100 g of pig pre-starter (MoorMan's ShowTec Prestarter, ADM, Quincy, IL) and was sprayed with either 5 mL of mineral oil (control) or 5 mL of the testing solution. The solution was sprayed on the feeder and not the feed. The 5 mL of the testing solution contained 4.5 mg of skatole and/or 9.0 mg of myristic acid. This concentration was selected based on the estimated concentration of each analyte in 150 g of lactating sow faeces based on GC/MS analysis. On the second testing day, feeder locations were switched to correct for side biases. A single observer following a 30 second scan sampling method, observed the behavior of each piglet in the litter at 30 second intervals to determine the percentage of time piglets spent interacting with each feeder during the five-hour period each testing day. A total of 600 observations were recorded per litter in each testing day. The percentage of time piglets within a litter spent interacting with each feeder was calculated by dividing the number of time piglets were observed interacting with a feeder over the total number of observations. Interacting with the feeder was defined as when piglets were sniffing, touching or licking the area of the feeder sprayed with the solution or eating or rooting the feed. A preference index was calculated for each feeder by dividing the amount of time piglets were observed interacting with a feeder by the sum of the number of times piglets were observed interacting with both feeders.
For each litter (experimental unit), an overall feed intake, preference index, and percentage of time interacted with each feeder was obtained from both testing days. Difference in overall feed intake, preference index, and percentage of time piglets spent interacting with the control and the feeder sprayed with the testing solutions were analyzed using the Wilcoxon-singed ranked test. […] All statistical analyses were performed using SAS 9.4. (SAS Inst., Inc., Cary, NC). A statistically significant difference was based on a P value≤0.05.

Structure (SMILES)	overall preference index (PI)	percentage of time piglets spent interacting with the feeder	piglet preference or aversion for sprayed feeder compared to control
CCCCCCCCCCCCCC(=O)O [Myristic acid, Tetradecanoic acid]	0.47	0.48%	No preference or aversion; also recorded: No preference
Cc1c[nH]c2ccccc12 [Skatole, 3-methylindole]	0.51	0.54%	No preference or aversion; also recorded: No preference
